± gives the expanded uncertainty stated by the source.
Key:
[1] = refractive index (Na D-line) (dimensionless); conditions: 298.15 K; 101.33 kPa; Liquid; Standard Abbe refractometry
[2] = 298.15 K; 101.33 kPa; Liquid; Pycnometric method

Q: With `CN1CCN(C)C1=O` [1,3-dimethyl-2-imidazolidinone] as the compound, how does the refractive index [1] read?
A: 1.4712 ± 0.0008

Q: What about the mass density [2] of the same compound?
A: 1052.25 ± 1.1 kg/m3

Reference: the NIST ThermoML archive (doi:10.1016/j.tca.2008.07.001)
